For assay [1], the target named is Kappa-type opioid receptor (Homo sapiens, UniProt P41145). Put plainly: Agonist activity at human kappa opioid receptor expressed in CHO cells assessed as stimulation of calcium mobilization by Fluo-4 AM dye based analysis. The assay is classed as functional, cell-based.
The subject of assay [2] is CHO. Put plainly: Concentration ratio of human NOP receptor expressed in CHO cells to human mu opioid receptor expressed in CHO cells. The assay is classed as cell-based.
Assay [3] deals with T1, Mu-type opioid receptor (Homo sapiens, UniProt P35372). As to the kind of experiment: Agonist activity at human mu opioid receptor expressed in CHO cells assessed as dynamic mass redistribution by DMR assay relative to control. As to conditions: filed as agonist. The assay is classed as functional, cell-based.
In assay [4] the target is T1, Mu-type opioid receptor. As to the kind of experiment: Agonist activity at human mu opioid receptor expressed in CHO cells assessed as dynamic mass redistribution by DMR assay. Format: functional, cell-based.
The species entered for assay [5] is Cavia porcellus. As to the kind of experiment: Anti-tussive activity in citric acid-induced guniea pig cough model assessed as reduction in cough number co- treated with nebulizer. Format: functional, organism-based. Conditions: time 30.0 min.
Assay [6] addresses T2, Nociceptin receptor (Homo sapiens, UniProt P41146). As to the kind of experiment: Agonist activity at human NOP receptor expressed in CHO cells assessed as stimulation of calcium mobilization by Fluo-4 AM dye based analysis.
Assay [7] deals with T2, Nociceptin receptor.
Description: Agonist activity at human NOP receptor expressed in CHO cells assessed as dynamic mass redistribution by DMR assay
Assay [8] addresses T1, Mu-type opioid receptor. As to the kind of experiment: Agonist activity at human mu opioid receptor expressed in CHO cells assessed as stimulation of calcium mobilization by Fluo-4 AM dye based analysis.
Assay [9] has as its system Cavia porcellus. As to the kind of experiment: Anti-tussive activity in citric acid-induced guniea pig cough model coadministered with citric acid. Format: functional, organism-based.
Assay [10] deals with T1, Mu-type opioid receptor. As to conditions: CHO.

The text below walks through data of ChEMBL document CHEMBL5032494, “Novel Mixed NOP/Opioid Receptor Peptide Agonists” (J Med Chem, 2021).

The structures appear in SMILES notation. Activity calls are given as the source filed them. No cut-off for these calls is given here. Where a SMILES comes first, the peptide text is derived from it. [ ]: non-standard residue; d: D form. Dmt = Cc1cc(O)cc(C)c1C[C@H](N)C(=O)O

T1 sequence (P35372 whole entry): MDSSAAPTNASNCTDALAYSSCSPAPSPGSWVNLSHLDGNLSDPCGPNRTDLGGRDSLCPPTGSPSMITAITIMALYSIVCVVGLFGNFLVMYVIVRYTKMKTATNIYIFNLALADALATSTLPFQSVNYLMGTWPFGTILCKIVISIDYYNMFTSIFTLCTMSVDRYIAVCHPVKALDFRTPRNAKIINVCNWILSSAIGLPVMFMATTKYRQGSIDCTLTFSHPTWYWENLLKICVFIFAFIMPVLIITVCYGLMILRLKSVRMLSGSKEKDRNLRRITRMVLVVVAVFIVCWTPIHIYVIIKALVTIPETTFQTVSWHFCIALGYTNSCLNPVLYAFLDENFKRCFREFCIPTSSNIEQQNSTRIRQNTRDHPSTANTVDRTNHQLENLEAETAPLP
T2 sequence (P41146 whole entry): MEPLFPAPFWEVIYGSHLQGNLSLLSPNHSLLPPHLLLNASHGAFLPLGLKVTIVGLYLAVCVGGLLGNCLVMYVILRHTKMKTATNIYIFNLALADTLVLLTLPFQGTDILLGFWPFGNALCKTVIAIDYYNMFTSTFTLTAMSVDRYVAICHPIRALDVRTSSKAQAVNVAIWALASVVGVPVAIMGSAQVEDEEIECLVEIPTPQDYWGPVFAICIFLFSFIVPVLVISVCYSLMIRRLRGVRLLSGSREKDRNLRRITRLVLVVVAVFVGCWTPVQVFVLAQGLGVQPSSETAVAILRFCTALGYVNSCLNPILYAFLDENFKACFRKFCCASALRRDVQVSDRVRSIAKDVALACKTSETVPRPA
Sequence of Kappa-type opioid receptor (P41145 whole entry): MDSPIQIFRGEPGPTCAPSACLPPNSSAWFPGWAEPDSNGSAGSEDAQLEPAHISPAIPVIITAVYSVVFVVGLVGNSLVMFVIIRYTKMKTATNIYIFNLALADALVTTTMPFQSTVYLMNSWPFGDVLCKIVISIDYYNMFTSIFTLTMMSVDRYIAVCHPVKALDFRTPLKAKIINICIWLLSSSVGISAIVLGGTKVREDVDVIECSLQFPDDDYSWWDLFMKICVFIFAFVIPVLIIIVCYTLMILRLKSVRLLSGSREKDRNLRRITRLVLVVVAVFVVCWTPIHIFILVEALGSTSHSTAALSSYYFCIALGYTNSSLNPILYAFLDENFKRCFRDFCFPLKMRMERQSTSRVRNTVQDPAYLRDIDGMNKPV

For `Cc1cc(O)cc(C)c1C[C@H](NC(=O)[C@H](Cc1ccccc1)NC(=O)CNC(=O)CNC(=O)[C@@H](N)Cc1c(C)cc(O)cc1C)C(=O)NCC(=O)N[C@@H](C)C(=O)N[C@@H](CCCNC(=N)N)C(=O)N[C@@H](CCCCN)C(=O)N[C@@H](CO)C(=O)N[C@@H](C)C(=O)N[C@@H](CCCNC(=N)N)C(=O)N[C@@H](CCCCN)C(N)=O` (H-[Dmt]GGF[Dmt]GARKSARK-NH2), the EC50 was 3.24 nM in assay [1]; 2.29 nM in assay [4]; 4.07 nM in assay [6]; 19.5 nM in assay [7]; 8.32 nM in [8]. Also, the Ratio in [2] was 0.49. The Emax in assay [3] was found to be 202%. In [5], the result was Active. The result in assay [9] was inactive.
For `Cc1cc(O)cc(C)c1C[C@H](N)C(=O)NCC(=O)NCC(=O)N[C@@H](Cc1ccccc1)C(=O)N[C@@H](Cc1ccc(O)cc1)C(=O)NCC(=O)N[C@@H](C)C(=O)N[C@@H](CCCNC(=N)N)C(=O)N[C@@H](CCCCN)C(=O)N[C@@H](CO)C(=O)N[C@@H](C)C(=O)N[C@@H](CCCNC(=N)N)C(=O)N[C@@H](CCCCN)C(N)=O` (H-[Dmt]GGFYGARKSARK-NH2), the Ratio in assay [2] was determined as 7.94. In addition, the results for the EC50 in [6] and in assay [8] were 123 nM and 15.5 nM, respectively.
Consider `Cc1cc(O)cc(C)c1C[C@H](NC(=O)[C@H](Cc1ccccc1)NC(=O)CNC(=O)CNC(=O)[C@@H](N)Cc1ccc(O)cc1)C(=O)NCC(=O)N[C@@H](C)C(=O)N[C@@H](CCCNC(=N)N)C(=O)N[C@@H](CCCCN)C(=O)N[C@@H](CO)C(=O)N[C@@H](C)C(=O)N[C@@H](CCCNC(=N)N)C(=O)N[C@@H](CCCCN)C(N)=O` (H-YGGF[Dmt]GARKSARK-NH2), for which the Ratio in [2] was determined as 0.09. Moreover, the EC50 in assay [6] was 17.8 nM; in [8], 195 nM.
Take `C[C@H](NC(=O)CNC(=O)[C@@H](NC(=O)[C@H](Cc1ccccc1)NC(=O)CNC(=O)CNC(=O)[C@@H](N)Cc1ccccc1)[C@@H](C)O)C(=O)N[C@@H](CCCNC(=N)N)C(=O)N[C@@H](CCCCN)C(=O)N[C@@H](CO)C(=O)N[C@@H](C)C(=O)N[C@@H](CCCNC(=N)N)C(=O)N[C@@H](CCCCN)C(N)=O`: in assay [10], the pEC50 entry was “inactive”.
For the molecule `Cc1cc(O)cc(C)c1C[C@H](N)C(=O)NCC(=O)NCC(=O)N[C@@H](Cc1ccccc1)C(=O)N[C@H](C(=O)NCC(=O)N[C@@H](C)C(=O)N[C@@H](CCCNC(=N)N)C(=O)N[C@@H](CCCCN)C(=O)N[C@@H](CO)C(=O)N[C@@H](C)C(=O)N[C@@H](CCCNC(=N)N)C(=O)N[C@@H](CCCCN)C(N)=O)[C@@H](C)O`, in [2], the Ratio is 0.06. Also, the EC50 in [6] was 2.69 nM; in [8] it was 42.7 nM.
